Measurements: patent publication US11130780B2, “Inhibitors of growth factor activation enzymes” (Washington University, priority 2015, dated 2021)
Residues, ends and D or L forms follow the SMILES beside them. *: point of attachment. ACC = NC(=O)Cc1cc(=O)oc2cc(N*)ccc12

Columns and labels:
Format in all cases: biochemical
hepsin [1] = target: T1, hepsin (Homo sapiens, UniProt P05981); assay: P1 substrate specificity using Ac-Ala-Arg-Leu-P1-ACC individual substrate library, hepsin; conditions: substrate 5 μM; best amino acid set to 100%
T1 construct: purchased R&D Systems 4776-SE-010
Method: (§1) Recombinant human hepsin (10 μg in 20 uL, 4776-SE-010, R&D Systems) was added to the 100 μL of activation buffer (0.1 M Tris, 0.15 M NaCl, 0.01 M CaCl2, 0.05% TRITON-X, pH=8.0) and incubated at 37° C. for 24 hours (hepsin concentration in activation buffer 2 μM). Once activated hepsin was diluted in assay buffer (0.05 M Tris, pH=9.0) to the final concentration of 4 nM and incubated at 37° C. for 15 minutes before added to a substrate.
(§2) The protocol for both enzymes activation and incubation are as the same as in HyCoSuL screening. The P1 individual substrate library was used at the final concentration of 5 μM. The total time of the assay was 30 min, however only linear portions of the progress curve (5-15 minutes) were used for velocity (RFU/s) calculations. Each screening for hepsin either HGFA was repeated 3-times and the average value for each measurement was used to create the substrate specificity matrix.

HGFA [2] = target: T2, HGFA (Homo sapiens, UniProt Q04756); assay: P1 substrate specificity using Ac-Ala-Arg-Leu-P1-ACC individual substrate library, HGFA; conditions: substrate 5 μM; best amino acid set to 100%
T2 sequence (Q04756 408-655 limits assumed): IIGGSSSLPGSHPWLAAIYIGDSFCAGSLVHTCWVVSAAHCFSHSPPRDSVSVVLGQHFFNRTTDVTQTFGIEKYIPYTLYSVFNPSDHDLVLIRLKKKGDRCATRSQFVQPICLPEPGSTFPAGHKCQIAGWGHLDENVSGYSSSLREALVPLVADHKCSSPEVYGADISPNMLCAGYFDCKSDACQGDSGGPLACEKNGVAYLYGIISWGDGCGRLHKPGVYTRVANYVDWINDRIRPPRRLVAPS
T2 sequence (Q04756 373-407 partner limits assumed): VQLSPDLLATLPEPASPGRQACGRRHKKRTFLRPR
Method: (§3) HFGA enzyme was diluted in the assay buffer (0.15 M NaCl, 0.025 M Tris, 0.005 M CaCl2, pH=8.0) to the final concentration of 10-20 nM (depending of sublibrary) and incubated at 25° C. for 30 minutes before added to a substrate.
as §2

hepsin [3] = target: T1, hepsin; assay: P4-P2 substrate specificity using HyCoSuL, hepsin; set-up: concentration or dose not given beside the values; conditions: HyCoSuL substrate library; for P2 Position % Activity Hepsin: amino acid fixed at P2 position; for P3 Position % Activity Hepsin: amino acid fixed at P3 position; for P4 Position % Activity Hepsin: amino acid fixed at P4 position
Method: (§4) Each of the P4, P3, and P2 sublibraries were screened at the 100 μM concentration with hepsin either HGFA in a 100 μL final volume per well (99 μL of protease in buffer+1 μL of 10 mM substrates mixture). The total time of the assay was 30 minutes, however only linear portions of the progress curve (5-15 minutes) were used for velocity (RFU/s) calculations. Each sublibrary screening was repeated at least 3-times and the average value calculated from each measurement was used to create the substrate specificity matrix—the best recognized amino acid in each position was set to 100%, and other amino acids were adjusted accordingly.
as §1

HGFA [4] = target: T2, HGFA; assay: P4-P2 substrate specificity using HyCoSuL, HGFA; set-up: P3 Position % Activity HGFA / P2 Position % Activity HGFA: concentration or dose not given beside the values; P4 Position % Activity HGFA: tested at 100 µM; conditions: HyCoSuL substrate library; for P2 Position % Activity HGFA: amino acid fixed at P2 position; for P3 Position % Activity HGFA: amino acid fixed at P3 position; for P4 Position % Activity HGFA: amino acid fixed at P4 position
Method: as §4, §3

T1 sequence (P05981 163-417 limits assumed): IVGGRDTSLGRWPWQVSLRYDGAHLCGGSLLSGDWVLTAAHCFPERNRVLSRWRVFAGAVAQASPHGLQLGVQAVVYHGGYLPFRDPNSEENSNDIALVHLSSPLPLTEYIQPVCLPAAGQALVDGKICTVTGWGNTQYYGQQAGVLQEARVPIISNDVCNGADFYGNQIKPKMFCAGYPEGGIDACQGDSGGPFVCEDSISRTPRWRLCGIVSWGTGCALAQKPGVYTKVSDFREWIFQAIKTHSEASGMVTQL
T1 sequence (P05981 45-162 partner limits assumed): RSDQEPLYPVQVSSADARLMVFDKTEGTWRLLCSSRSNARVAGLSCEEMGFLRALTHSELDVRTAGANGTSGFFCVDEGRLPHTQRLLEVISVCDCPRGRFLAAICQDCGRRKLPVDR

| % activity, P1 position, Hepsin (hepsin [1]) [%] | % activity, P1 position, HGFA (HGFA [2]) [%] | P2 Position % Activity Hepsin (hepsin [3]) [%] | P3 Position % Activity Hepsin (hepsin [3]) [%] | P4 Position % Activity Hepsin (hepsin [3]) [%] | P2 Position % Activity HGFA (HGFA [4]) [%] | P3 Position % Activity HGFA (HGFA [4]) [%] | P4 Position % Activity HGFA (HGFA [4]) [%] | Compound |
| --- | --- | --- | --- | --- | --- | --- | --- | --- |
| 0.42 | 0.00 | 32.27 | 29.53 | 36.68 | 6.32 | 13.41 | 6.44 | L-Cit |
| 100.00 | 100.00 | 57.23 | 70.75 | 80.32 | 2.08 | 43.98 | 23.62 | CC(=O)N[C@@H](C)C(=O)N[C@@H](CCCNC(=N)N)C(=O)N[C@@H](CC(C)C)C(=O)N[C@@H](CCCNC(=N)N)C(=O)Nc1ccc2c(CC(N)=O)cc(=O)oc2c1 [Ac-Ala-Arg-Leu-Arg-ACC] (Ac-ARLR-{ACC}) |
| 0.07 | 0.00 | 62.04 | 24.09 | 40.93 | 45.52 | 19.15 | 11.76 | L-Nle |
| 0.50 | 0.00 | 0.00 | 24.90 | 1.48 | 0.00 | 87.59 | 7.65 | D-Trp |
| 0.00 | 0.00 | 0.00 | 97.80 | 20.13 | 0.00 | 13.84 | 8.03 | D-Gln |
| 1.08 | 0.00 | 0.00 | 38.88 | 20.45 | 0.00 | 4.96 | 10.30 | D-Pro |
| – | 0.00 | 0.00 | 24.92 | 13.15 | 0.00 | 15.22 | 8.13 | D-Phe |
| 0.23 | 0.00 | 0.00 | 29.94 | 12.66 | 0.00 | 17.32 | 10.09 | D-Tyr |
| 0.14 | 0.00 | 58.40 | 25.85 | 41.99 | 39.80 | 17.60 | 11.78 | L-Nva |
| 0.24 | 0.00 | 0.00 | 36.69 | 25.74 | 0.00 | 6.45 | 8.61 | D-Thr |

More lines, now with the values behind:

| Compound | % activity, P1 position, Hepsin (hepsin [1]) [%] | % activity, P1 position, HGFA (HGFA [2]) [%] | P2 Position % Activity Hepsin (hepsin [3]) [%] | P3 Position % Activity Hepsin (hepsin [3]) [%] | P4 Position % Activity Hepsin (hepsin [3]) [%] | P2 Position % Activity HGFA (HGFA [4]) [%] | P3 Position % Activity HGFA (HGFA [4]) [%] | P4 Position % Activity HGFA (HGFA [4]) [%] |
| --- | --- | --- | --- | --- | --- | --- | --- | --- |
| D-Asp | 0.05 | 0.00 | 0.00 | 17.18 | 1.98 | 0.00 | 5.37 | 2.25 |
| D-Lys | 0.23 | 0.00 | 0.00 | 64.56 | 49.84 | 0.00 | 21.11 | 17.66 |
| D-Glu | 0.00 | 0.00 | 0.00 | 34.55 | 2.98 | 0.00 | 3.61 | 2.62 |
| L-Met(O) | 0.00 | 0.00 | 11.40 | 68.16 | 22.86 | 1.68 | 16.63 | 6.64 |
| D-Leu | 0.00 | 0.00 | 0.00 | 20.14 | 24.76 | 0.00 | 7.08 | 10.56 |
| L-Dap | 0.03 | 0.00 | 10.01 | 48.71 | 35.65 | 1.49 | 24.27 | 13.31 |
| D-Ala | 0.00 | 0.00 | 0.00 | 48.09 | 18.44 | 0.00 | 9.84 | 7.11 |
| L-Hyp | 0.00 | 0.00 | 38.67 | 4.70 | 37.81 | 3.95 | 2.18 | 10.66 |
